Values of other authors in patent US7378261B2, “Method for preparing para-hydroxystyrene by biocatalytic decarboxylation of para-hydroxycinnamic acid in a biphasic reaction medium” (E.I. du Pont de Nemours and Company, priority 2003, dated 2008).

Conditions: logarithm of solvent's partition coefficient in standard octanol:water mixture

Compound	log P
CCCCCC(C)O (centres unmarked) [2-heptanol]	2.24
CCCCCCCCC(C)O (centres unmarked) [2-decanol]	3.71
CCCCCCCCCC(C)=O [2-undecanone]	4.21

Other lines, results leading:

log P	Compound
3.71	CCCCCCC(O)CCC (centres unmarked) [4-decanol]
3.2	CCCCCCCC(=O)CC [3-decanone]
3.22	CCCCCCCC(C)O (centres unmarked) [2-nonanol]
3.2	CCCCCCC(=O)CCC [4-decanone]
3.9	CCCCCC [hexane]
